“Also recorded” adds a separate entry of the source. Marks after values point to notes of the source that are not given here.
Assays:
global DNA methylation [1] = experiment: Global DNA MI (HPLC) before and after low-dose 5-azacytidine; format: in vivo, human
patients with CLL = experiment: Dose-escalation study of low-dose 5-azacytidine: toxicity; format: in vivo, human
Method: (§1) Patients with CLL not in immediate need for cytoreductive therapy are enrolled on a dose-escalation study of low-dose 5-azacytidine (Vidaza, provided by the Pharmion Corporation.) Patients must have a KPS greater than 70%, white blood cell count greater than 20,000/μL hemoglobin >8 g/dL, platelet count >50,000/μL, normal liver, and renal functions. The study was carried out in 2 stages using a modification of the design proposed by Storer. {Storer, 1989 #16} In the first stage, patients were enrolled as single patient cohorts until either at least a 20% DNA MI inhibition or a greater than grade II toxicity. This allowed us to get closer to the target biologically effective dose before enrolling three patient cohorts. The global DNA MI and the miRNA expression profile of 6 patients before and after 5-azacytidine in the patients in the first stage of the study protocol was determined. Patients received 10-70 mg/m^2/day on days 1-3 and days 8-10.

[2] = tested on: miRNA expression in patients with CLL; experiment: miRNA expression profile (Taqman real-time PCR) before and after DNA methylation inhibitor; format: in vivo, human; conditions: for Changes in bcl-2, p53, mir-15, mir-16: after treatment; for miR-34a and miR-195 expression: patients with decreased lymphocytosis following drug treatment; for Expression of mir-17-3p, mir-21, mir-29a/b/c, mir-30e, mir-104, mir-126, mir-128a, mir-130a, mir-141, mir-142-3p, mir-148a, mir-151, mir-199a, mir-199a*, mir-301: real-time PCR, Early Access Human Panel; for microRNA expression after treatment: six patients on 5-azacytidine, one patient on 2-chloro-2-deoxyadenosine
Method: The DNA MI was measured in each patient before and after treatment with low dose cladribine.
as §1
Total RNA is extracted with Trizol, as previously described. {O'Donnell, 2005 #182} MiRNA expression was determined using the Applied Biosystems Taqman MicroRNA Assays Human Panel Early Access Kit. 10 ηg of RNA is used for each sample. cDNA is made using a looped RT primer provided by the kit. A 1 to 5 dilution of the cDNA is used for each sample and used for quantitative PCR on the ABI 7900HT Fast Real-Time PCR System. MiRNA-specific forward and reverse primers were provided in plates A and B. MiR-16 and let-7a served as positive controls while let-2 served as a negative control for human samples. Each miRNA were performed in quadriplicates. The miRNA expression was determined for CD5^+B-lymphocytes obtained from pediatric tonsils and from B-lymphocytes of 5 healthy controls.
Two different DNA methylation inhibitors were studied with respect to re-expression of microRNA: a DNA methyltransferase enzyme inhibitor, 5-azacytidine, and a methyl substrate inhibitor, 2-chloro-2-deoxyadenosine. […] Mir-17-3p and mir-21 have anti-apoptotic properties.

global DNA methylation [3] = experiment: Global methylation analysis after continuous infusion Decitabine; format: in vivo, human; conditions: patients treated with Decitabine
Method: All patients were treated with continuous infusion Decitabine given intravenously in an inpatient setting. […] The method for assessing DNA methylation was consistent and reproducible (Samlowski et al. Manuscript submitted to JCO).

global DNA methylation [4] = experiment: Global DNA methylation (HPLC of digested genomic DNA) before and after low-dose cladribine; format: in vivo, human
[5] = tested on: histone 3 (H3) methylation in CLL cells; experiment: Histone methylation immunofluorescence of CLL cells after low-dose cladribine; format: in vivo, human
Method: The DNA and the mononuclear cells from the buffy coat were stored from the majority of patient samples. DNA was used for global DNA methylation studies and the mononuclear cells from the buffy coat were used to measure changes in H3 methylation by immunofluorescence before and after treatment.
3×10^4 CLL cells were mounted onto a slide by cytospin at 800 rpm for 3 minutes. They were then fixed in 95% ethanol/5% acetic acid for 10 minutes, followed by incubation in 0.25 M sodium butyrate for 24 hours at room temperature. The slides were stained by the Ventana automated immunostainer at 40° C. The slides were first stained with the primary antibody (1:50) for 32 minutes, followed by staining with the secondary antibody (sheep or rabbit IgG-FITC) (1:200) for 32 minutes. Slides were counterstained with DAPI (1:100) for 1 minute and hematoxylin (Ventana Medical Systems) for 4 minutes. Fluorescent detection was performed with the IView DAB detection kit (Ventana Medical Systems). Intensity of fluorescence was quantitated by a wide field fluorescent microscope and quantified by the Openlab modular imaging software. Signal to noise was optimized by the software.
A histone methylation assay that uses immunofluorescence to assess for histone methylation patterns after treatment with low-doses of cladribine was developed. […] These states are associated with transcription silencing. (See Jaskelioff et al., Nat. Cell. Biol. (2003) 5:395-99). In FIG. 4, an average of 100 cells was quantitated in the fluorescence intensity at each time point. The asterisk corresponds to days of treatment with cladribine. The error bars at each time point refer to the range of antibody staining in all cells. […] Multiparametric flow cytometry may be utilized to analyze further which subset of CLL cells respond to low doses of drugs.

HT-29 cells = experiment: DNA microarray analysis of gene re-expression after Cladribine; format: cell-based; conditions: HT-29 colon cancer cell line
Method: Lymphocytes are inclubated with 0-3 μM Cladribine.
Total RNA is isolated with RNeasy mini kits (Qiagen) from samples treated with Cladribine or vehicle. Approximately 1 μg may be amplified using Message Amp kits (Ambion). In replicate experiments, DNA from the vehicle or treated samples may be variably labeled with Cy-3 and Cy-5 dye and two microarray experiments may be performed for each dye-orientation. The utilized microarray slides consist of 9600 genes from the Research Genetics 40k sequence-verified human clone set. Each sample is deposited in duplicate, with a Lucidea (Amersham) robotic spotter. After hybridization, the microarray slides are scanned with an Axon scanner, and data quantified using Imagene and GeneSight software. The local background is subtracted. Data points with no signal, high background, or spot asymmetry are eliminated. Genes with low expression and low signal intensity are adjusted to a minimal raw value of 5 to avoid unwarranted mathematical distortions due division by decimals <<1. After calculating the ratio of the Cy5/Cy3 fluorescence signal intensity for each gene, data is normalized relative to the mean intensity from all genes. […] Data is analyzed with Spotfire software for statistical and hierarchical cluster analysis using an unweighted pair-group method with arithmetic mean with a Euclidean distance metric.

[6] = tested on: patients with chronic lymphocytic leukemia; experiment: Phase I dose-escalation of low-dose subcutaneous cladribine: clinical response and toxicity; format: in vivo, human
Method: Additional inclusion criteria included: KPS>70%, absolute neutrophil count >1500/μl, platelet count >100,000/μl, creatinine <2.0 mg/dl, normal liver function tests, no evidence of active infections on chest x-ray or urinalysis, and no concurrent chemotherapy or radiation therapy within 4 weeks of registration. Each patient signed an informed consent form approved by the University of Utah institutional review board, Clinical Cancer Investigation Committee, and Salt Lake City Veterans Administration Medical Center (SLC VAMC) Research and Development office.
The study accrued three patients from the VAMC and two patients from the Huntsman Cancer Institute at the University of Utah from January to May 2005. The patients were given three consecutive subcutaneous injections of cladribine (Leustatin) once every 28-32 days, starting at a dose of 0.05 mg per kg per day. The primary endpoint of the study was to find the dose of cladribine which caused a 20% decrease in global DNA methylation. Each patient served as their own control, and was dose-escalated every 28-32 days by 0.01 mg per kg per day if the primary endpoint was not met. Patients were given prophylactic doses of trimethoprim/sulfamethoxazole for the prevention of pneumocystis carinii. Patients allergic to trimethoprim/sulfamethoxazole were prescribed prophylactic doses of dapsone. No clinical endpoints were written into the study initially. […] A clinical response was defined by the NCI-sponsored working group for CLL. (See Cheson et al., BLOOD (1996) 87:4990-97). A patient was considered to have completed the study when the total white blood count was less than 10,000 cells/μl after two consecutive weekly blood counts. The entire study was conducted at the University of Utah General Clinical Research Center (GCRC). Leustatin was provided to the patients by Tibotec Therapeutics, a division of Johnson and Johnson.
Five patients with CLL were given subcutaneous injections of cladribine (Leustatin, provided by Tibotec Therapeutics) on three consecutive days at 28-32 day intervals, starting at a dose of 0.05 mg/kg/day, approximately ⅓ of the recommended therapeutic dose. {Juliusson, 1993 #10; Juliusson, 1996 #11} Five patients with a confirmed diagnosis of CLL (Table 3) participated in an Institutional Review Board-approved protocol between January and May 2005 after informed consent was obtained. […] Inclusion criteria included: KPS>70%, absolute neutrophil count >1500/μL, platelet count >100,000/μL, creatinine <2.0 mg/dL, normal liver function tests, no evidence of active infections, and no concurrent chemotherapy or radiation therapy within 4 weeks of registration.

[7] = CLL cells after low dose cladribine
[8] = low-dose cladribine s.c., 5 CLL patients
[9] = low-dose cladribine, 5 patients

## Nc1ncn([C@@H]2O[C@H](CO)[C@@H](O)[C@H]2O)c(=O)n1 [5-azacytidine]
Global DNA methylation [1]; 6 out of 7 patients, pooled with the 2-chloro-2-deoxyadenosine patient
  Global decrease of DNA methylation after treatment: 8%
Global DNA methylation [1]; four out of the 6 patients, low-dose 5-azacytidine
  Decrease in global DNA MI: ~10%
Global DNA methylation [1]; patients 2 and 4, low-dose 5-azacytidine
  Change in global DNA MI: No change
Patients with CLL; 5th patient, 60 mg/m^2/day
  Toxicity: grade II thrombocytopenia and anemia
Patients with CLL; the other patients, 10-70 mg/m^2/day
  Toxicity: No other toxicities were observed
[2]
  Changes in bcl-2, p53, mir-15, mir-16: No changes
  miR-34a and miR-195 expression: upregulated
  Expression of mir-17-3p, mir-21, mir-29a/b/c, mir-30e, mir-104, mir-126, mir-128a, mir-130a, mir-141, mir-142-3p, mir-148a, mir-151, mir-199a, mir-199a*, mir-301: consistent microRNA upregulation
  microRNA expression after treatment: Increased microRNA expression

## Nc1ncn([C@H]2C[C@H](O)[C@@H](CO)O2)c(=O)n1 [Decitabine, 5-aza-2-deoxycytidine]
Global DNA methylation [3]
  Decrease in global DNA methylation level achievable: ≥ 20%

## Nc1nc(Cl)nc2c1ncn2[C@H]1C[C@H](O)[C@@H](CO)O1 [cladribine, 2-chlorodeoxyadenosine]
Global DNA methylation [4]; 6 out of 7 patients, pooled with the six 5-azacytidine patients
  Global decrease of DNA methylation after treatment: 8%
Global DNA methylation [4]; low-dose cladribine
  Effect on global DNA methylation: modest response; also recorded: not an effective DNA methylation inhibitor; also recorded: minimal inhibition in global DNA methylation
[5]; [7]
  H3 dimethylated lysine 9 immunofluorescence: Little change
  H3 monomethylated lysine 4 immunofluorescence: decreased to levels akin to signal intensity obtained from total histone 3; also recorded: decrease transiently
  H3 monomethylated lysine 9 immunofluorescence: increase and rise
  H3 phospho-serine 10 immunofluorescence: decrease and rise
  H3 trimethylated lysine 9 immunofluorescence: increase in trimethylated lysine 9 approximately 1 week later and increase and rise
[5]; patient 4, 0.05 mg per kg per day cladribine
  Total histone 3 immunofluorescence: minimal changes
HT-29 cells
  Re-expression of silenced genes (DNA microarray): re-expression of silenced genes in HT-29 cells
[6]; Patient 1
  Hemoglobin change over the course of the study: did not exhibit a decrease in hemoglobin
[6]; low-dose cladribine 0.05-0.09 mg per kg per day
  Toxicities overall: without toxicities
[6]; low-dose cladribine 0.05-0.09 mg per kg per day, 3 days every 28 days
  Clinical response (NCI-sponsored working group): induce a clinical response in some patients; also recorded: partial response; also recorded: Three out of the five
[6]; [8]
  CR (number of patients): 0
  PD (number of patients): 1
  PR duration: 5 months
[6]; [9]
  Hematologic toxicities Grade III/IV (number of patients): Grade III/IV (0)
  Non-hematologic toxicities Grade I/II (number of patients): Grade I/II (2)*
  Non-hematologic toxicities Grade III/IV (number of patients): Grade III/IV (0)
[6]; low-dose cladribine, events in patient 4
  Non-hematologic toxicities observed (adverse events): Two grade II non-hematologic toxicities; also recorded: grade II lymphadenitis; also recorded: second grade II infection, a community-acquired pneumonia
[6]; mean of the 5 patients on trial, range 8-67 days
  Decrease in lymphocyte count by 50% (time): 48 days (8-67 days)**
[6]; mean of the 5 patients on trial, range 12.1-16 g/dL
  Hemoglobin: 14.6 g/dL (12.1-16 g/dL)**
[6]; mean of the 5 patients on trial, range 133-438k/μL
  Platelet count: 224k/μL (133-438k/μL)**
[6]; patient 1, dose escalation
  Reduction in circulating leukemia cells: did not demonstrate a reduction in circulating leukemia cells until the third dose escalation of 0.07 mg per kg per day
[6]; patient 3, higher baseline global DNA methylation
  Outcome of patient 3 (previously treated): progressive disease; also recorded: progression with a gradually increasing white blood count
[6]; patient 5, first dose 0.05 mg per kg per day
  White blood cell count change: dramatic reduction in white blood cell count
[6]; patients 1, 2, 4 and 5 after low dose cladribine
  Reduction in white blood cell count: ≥ 50%
[2]
  Changes in bcl-2, p53, mir-15, mir-16: No changes
  miR-34a and miR-195 expression: upregulated
  Expression of mir-17-3p, mir-21, mir-29a/b/c, mir-30e, mir-104, mir-126, mir-128a, mir-130a, mir-141, mir-142-3p, mir-148a, mir-151, mir-199a, mir-199a*, mir-301: consistent microRNA upregulation
  microRNA expression after treatment: Increased microRNA expression
